Test results from publication PMC4503722, “Novel Phenotypic Outcomes Identified for a Public Collection of Approved Drugs from a Publicly Accessible Panel of Assays” (PLoS ONE, 2015).
Where two headings read alike, the source gives them in different places.

What was measured:
DLD-1 = test: cells; type: cell-based; details: for IC50: read-out: Basal_Viability ATP DLD-1 summarized IC50
SW480 = test: cells; type: cell-based; details: for IC50: read-out: Basal_Viability ATP SW480 summarized IC50
HCT116 = test: cells; type: cell-based; details: for IC50: read-out: Basal_Viability ATP HCT116 summarized IC50
[1] = test system: HCT116 cells treated with a GSK3β inhibitor; test: cells; type: cell-based; details: for IC50: read-out: GSK3b inh pretreated_Viability ATP HCT116 summarized IC50
Colo320 = test: cells; type: cell-based; details: for IC50: read-out: Basal_Viability ATP Colo 320 summarized IC50
RKO = test: cells; type: cell-based; details: for IC50: read-out: Basal_Viability ATP RKO summarized IC50
SNU-C1 = test: cells; type: cell-based; details: for IC50: read-out: Basal_Viability ATP SNU-C1 summarized IC50
[2] = test system: endothelial tube formation in co-cultures of ECFCs and ADSCs treated with VEGF; test: cells; type: cell-based, human; details: for IC50: read-out: VEGF_ADSC\ECFC Angio CD31 TubeArea summarized IC50
HT-29 = test: cells; type: cell-based
[3] = test system: ECFC/ADSC co-culture cell nuclei number; details: for IC50: read-out: VEGF_ADSC\ECFC Angio Hoechst NucArea summarized IC50
HeLa cells = test: cells; type: cell-based;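 as to Hela CellCycMod PI 4N summarized IC50: value tracks stimulation of 4N DNA content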

`C=C(CC)C(=O)c1ccc(OCC(=O)O)c(Cl)c1Cl` [NCGC00016260-13] was tested, and the IC50 (DLD-1) was 11.9 µM, the IC50 (SW480) was over 6.67 µM and the IC50 (HCT116) was over 20 µM. For the same compound, the IC50 [1] was 12.2 µM, the IC50 (Colo320) was over 20 µM and the IC50 (RKO) was over 6.67 µM. It also gave an IC50 (SNU-C1) of over 20 µM.

With `Cc1cc(-c2ccc(N=Nc3c(S(=O)(=O)O)cc4cc(S(=O)(=O)O)cc(N)c4c3O)c(C)c2)ccc1N=Nc1c(S(=O)(=O)O)cc2cc(S(=O)(=O)O)cc(N)c2c1O` [NCGC00344528-01] the “IC50/EC50, VEGF_ADSC\ECFC Angio CD31 TubeArea (assay number 2)” value [2] was over 10 µM, the “IC50/EC50, Basal_Viability ATP DLD-1 (assay number 23)” value (DLD-1; basal) was over 20 µM and the “IC50/EC50, Basal_Viability ATP SW480 (assay number 24)” value (SW480; basal) was over 20 µM. The “IC50/EC50, Basal_Viability ATP HCT116 (assay number 25)” value (HCT116; basal) was over 20 µM, the “IC50/EC50, GSK3b inh pretreated_Viability ATP HCT116 (assay number 26)” value ([1]; GSK3b inh pretreated) was over 20 µM and the “IC50/EC50, Basal_Viability ATP Colo 320 (assay number 27)” value (Colo320; basal) was over 20 µM. For the same compound, the “IC50/EC50, Basal_Viability ATP HT-29 (assay number 28)” value (HT-29; basal) was over 20 µM, the “IC50/EC50, Basal_Viability ATP RKO (assay number 29)” value (RKO; basal) was over 20 µM and the “IC50/EC50, VEGF_ADSC\ECFC Angio Hoechst NucArea (assay number 3)” value [3] was over 10 µM.

In the case of `CC(C)(C)NCC(O)c1cc(O)cc(O)c1.CC(C)(C)NCC(O)c1cc(O)cc(O)c1.O=S(=O)(O)O` (centres unmarked) [NCGC00016010-09], the “Basal_Viability ATP DLD-1 IC50/EC50” value (DLD-1; assay number 23) is reported as over 20 µM, the “Basal_Viability ATP SW480 IC50/EC50” value (SW480; assay number 24) is reported as over 20 µM and the “Basal_Viability ATP HCT116 IC50/EC50” value (HCT116; assay number 25, basal) is reported as over 20 µM. The “Basal_Viability ATP Colo 320 IC50/EC50” value (Colo320; assay number 27) was over 20 µM, the “Basal_Viability ATP HT-29 IC50/EC50” value (HT-29; assay number 28) was over 20 µM and the “Basal_Viability ATP RKO IC50/EC50” value (RKO; assay number 29) was over 20 µM.

Compound `CN(Cc1cnc2nc(N)nc(N)c2n1)c1ccc(C(=O)N[C@@H](CCC(=O)O)C(=O)O)cc1` [NCGC00025060-15] has an IC50 [2] of over 10 µM, an IC50 (HeLa cells; assay number 14, 2N, read-out: Hela CellCycMod PI 2N summarized IC50) of over 10 µM and an IC50 (HeLa cells; assay number 15, S phase, read-out: Hela CellCycMod PI S Phase summarized IC50) of over 10 µM. It also gave an IC50 (HeLa cells; assay number 16, 4N, read-out: Hela CellCycMod PI 4N summarized IC50) of over 10 µM, an IC50 (HeLa cells; assay number 17, MI, read-out: Hela CellCycMod PI MI summarized IC50) of over 10 µM and an IC50 (HeLa cells; assay number 18, cell number, read-out: Hela CellCycMod PI Cell Number summarized IC50) of over 10 µM. It also gave an IC50 (SNU-C1; assay number 30, basal) of over 20 µM and an IC50 [3] of over 10 µM.

With `COc1ccc(-n2nc(CCC(=O)N(C)O)cc2-c2ccc(Cl)cc2)cc1` [NCGC00253573-01] the “Basal_Viability ATP DLD-1 IC50/EC50” value (DLD-1) was 2.0757 µM, the “Basal_Viability ATP SW480 IC50/EC50” value (SW480) was 2.8124 µM and the “Basal_Viability ATP HCT116 IC50/EC50” value (HCT116) was 6.5453 µM. The “Basal_Viability ATP Colo 320 IC50/EC50” value (Colo320) was 0.6615 µM, the “Basal_Viability ATP RKO IC50/EC50” value (RKO) was 4.1076 µM and the “Basal_Viability ATP SNU-C1 IC50/EC50” value (SNU-C1) was 1.7479 µM.

In the case of `CN1Cc2cc(C(=O)N3CCC(C4CCNCC4)CC3)ccc2N[C@@H](CC(=O)O)C1=O` [NCGC00319023-01], the “VEGF_ADSC\ECFC Angio CD31 TubeArea IC50/EC50” value [2] is reported as over 10 µM, the “Basal_Viability ATP DLD-1 IC50/EC50” value (DLD-1; assay number 23, concentration response) is reported as over 20 µM and the “Basal_Viability ATP SW480 IC50/EC50” value (SW480; assay number 24, concentration response) is reported as over 20 µM. For the same compound, the “Basal_Viability ATP HCT116 IC50/EC50” value (HCT116; assay number 25, basal, concentration response) was over 20 µM, the “GSK3b inh pretreated_Viability ATP HCT116 IC50/EC50” value ([1]; assay number 26, GSK3b inhibitor pretreated, concentration response) was over 20 µM and the “Basal_Viability ATP Colo 320 IC50/EC50” value (Colo320; assay number 27, concentration response) was over 20 µM. The “Basal_Viability ATP RKO IC50/EC50” value (RKO; assay number 29, concentration response) was over 20 µM, the “Basal_Viability ATP SNU-C1 IC50/EC50” value (SNU-C1; assay number 30, concentration response) was over 20 µM and the “VEGF_ADSC\ECFC Angio Hoechst NucArea IC50/EC50” value [3] was over 10 µM.

With `c1cnc2cc3c(cc2n1)C1CNCC3C1` [NCGC00247735-02] the “Basal_Viability ATP DLD-1 IC50/EC50” value (DLD-1; assay number 23, basal) was over 6.6667 µM, the “Basal_Viability ATP SW480 IC50/EC50” value (SW480; assay number 24, basal) was over 6.6667 µM and the “Basal_Viability ATP HCT116 IC50/EC50” value (HCT116; assay number 25, basal) was over 20 µM. The “Basal_Viability ATP Colo 320 IC50/EC50” value (Colo320; assay number 27, basal) was over 20 µM.

For `Oc1ccc(Cl)cc1Cc1ccccc1` [NCGC00091532-06], the IC50 (SW480; assay number 24, basal) was over 20 µM, the IC50 (HCT116; assay number 25, basal) was over 20 µM and the IC50 ([1]; assay number 26, GSK3b inhibitor pretreated) was over 6.67 µM. For the same compound, the IC50 (Colo320; assay number 27, basal) was 13 µM, the IC50 (HT-29; assay number 28, basal, read-out: Basal_Viability ATP HT-29 summarized IC50) was over 20 µM and the IC50 (RKO; assay number 29, basal) was over 20 µM.

With `Oc1ccc(Cl)cc1Sc1cc(Cl)ccc1O` [NCGC00013679-06] the IC50 [2] was 3.53 µM, the IC50 (DLD-1) was 0.301 µM and the IC50 (SW480) was 0.579 µM. The IC50 (HCT116) was 0.183 µM, the IC50 [1] was 0.148 µM and the IC50 (Colo320) was 0.075 µM. The IC50 (RKO) was 0.116 µM, the IC50 (SNU-C1) was 1.85 µM and the IC50 [3] was 8.69 µM.

`CN(C)/N=N/c1nc[nH]c1C(N)=O` [NCGC00091861-07] was tested, and the “IC50/EC50, VEGF_ADSC\ECFC Angio CD31 TubeArea (assay number 2)” value [2] was 4.5862 µM, the “IC50/EC50, Hela CellCycMod PI 2N (assay number 14)” value (HeLa cells; 2N) was over 10 µM and the “IC50/EC50, Hela CellCycMod PI 4N (assay number 16)” value (HeLa cells; 4N) was over 10 µM. For the same compound, the “IC50/EC50, Hela CellCycMod PI Cell Number (assay number 18)” value (HeLa cells; Cell Number) was over 10 µM, the “IC50/EC50, Hela CellCycMod PI MI (assay number 17)” value (HeLa cells; MI) was over 10 µM and the “IC50/EC50, Hela CellCycMod PI S Phase (assay number 15)” value (HeLa cells; S Phase) was over 10 µM. For the same compound, the “IC50/EC50, VEGF_ADSC\ECFC Angio Hoechst NucArea (assay number 3)” value [3] was over 10 µM.
